In patent US9629869B2, “Application of fructus schisandrae total polysaccharides in preparatoin of medicine or nutraceuticals used for treating coughing” (priority 2014, dated 2017):

How the values were obtained:
Format in all cases: in vivo, guinea pig
[1] = system: guinea pigs with increased cough sensitivity induced by cigarette smoke; assay: Citric acid cough stimulation of guinea pigs with increased cough sensitivity induced by cigarette smoke (Embodiment I); settings: 30 mg/kg oral once, one hour before citric acid check, x ± s, n = 7-10
Experimental: Experimental animals used in the specific embodiments are ordinary male pure white Hartly guinea pigs each with a weight of 300±50 g which are supplied by the Laboratory Animal Center of Guangdong Province (SCXK (Guang) 2008-0002). The guinea pigs are raised in a relatively clean and quiet environment with constant temperature (23±3° C.) and constant humidity (55±15%); the diurnal cycle is 12:12 h/day; and the guinea pigs are raised in different cages, and every five guinea pigs are raised in one cage and can obtain food and water freely. […]
Except for the normal group, animals in other groups are respectively stimulated by adopting the smoking method described in the above 1.1. […] The guinea pigs are placed in a plethysmogrophy box at the 15th day; two minutes later, 0.4 mol/L citric acid aqueous solution is atomized to perform the cough stimulation, and the atomizing is ended in 10 minutes; the guinea pigs are continuously observed for 10 minutes; and the coughing times and coughing latent period of the guinea pigs in 20 minutes after the atomizing is started are recorded.

[2] = system: acute cough guinea pigs induced by citric acid smoke; assay: Acute cough of guinea pigs induced by citric acid smoke, five days of dosing (Embodiment II); settings: 30 mg/kg oral once, one hour before stimulation at fifth day, x ± s, n = 8
Experimental: After the guinea pigs are quietly raised for one week, the cough sensitivity screening is carried out: the guinea pigs is stimulated for one minute by atomizing 0.8 mol/L citric acid and continuously observed for five minutes; the coughing times of the guinea pigs in 6 minutes after the atomizing is started is recorded; and the guinea pigs with the coughing times greater than 10 times and less than 50 times are the qualified guinea pigs. […]
Except for the normal group and the codeine group, the guinea pigs in the rest groups are orally given with drugs or solvent consecutively for five days and once a day; and the citric acid cough stimulation is carried out in one hour after the guinea pigs are given with the drug or solvent at the fifth day: the guinea pigs are stimulated for one minute by atomizing 0.8 mol/L citric acid and are continuously observed for 5 minutes after the atomizing is stopped, and the coughing times of the guinea pigs in 6 minutes after the atomizing is started is recorded. […]

[3] = system: BALF inflammatory cells of guinea pigs with increased cough sensitivity induced by cigarette smoke; assay: Total number and classification of BALF inflammatory cells, cigarette smoke guinea pigs (Embodiment I); settings: codeine group 30 mg/kg oral once, n = 7-10
Experimental: 1.1 Smoking method: prior to the experiment, after being adaptively raised quietly for one week, the guinea pigs are placed in a self-made cigarette poisoning box; ten cigarettes are fired every time and placed in a smoking trough (flume-cured tobacco type, content of tar is 12 mg, content of nicotine in smoke is 1.1 mg, and content of carbon oxide in the smoke is 15 mg); and the cigarette smoke is led into the poisoning box by three-way valve, and the timing is started after the cigarette is burnt out. The guinea pigs are smoked for 20 minutes every time and twice a day; and the smoking interval time between two adjacent smoking is greater than 6 h; and the guinea pigs are consecutively smoked for 14 days.
The guinea pigs are randomly divided into a normal group, a model group, a solvent reference group (0.5% PEG400), a codeine group, a water extract high dose group (dose: 500 mg/kg guinea pig/day: drug concentration: […]), a total polysaccharides high dose group (dose: 500 mg/kg guinea pig/day; drug concentration: 50 mg/mL), a total polysaccharides middle dose group (dose: 250 mg/kg guinea pig/day; drug concentration: 25 mg/mL) and a total polysaccharides low dose group (dose: 125 mg/kg guinea pig/day, drug concentration: 12.5 mg/mL).
Except for the normal group, animals in other groups are respectively stimulated by adopting the smoking method described in the above 1.1. Except for the normal group and the codeine group, the guinea pigs in the other groups are orally given with the corresponding drugs or solvent two hours before the second smoking for 14 consecutive days from the first day of smoking. The guinea pigs of the codeine group is orally administrated (30 mg/kg guinea pig; the codeine concentration: 3 mg/mL) one hour before the citric acid cough sensitivity check. The guinea pigs of the normal group are normally raised without any treatment. The guinea pigs are placed in a plethysmogrophy box at the 15th day; two minutes later, 0.4 mol/L citric acid aqueous solution is atomized to perform the cough stimulation, and the atomizing is ended in 10 minutes; the guinea pigs are continuously observed for 10 minutes; and the coughing times and coughing latent period of the guinea pigs in 20 minutes after the atomizing is started are recorded.
Intraperitoneal injection with 3% pentobarbital sodium solution (1 mL/kg) is performed to anesthetize the animal in 24 hours after the cough stimulation test, and 10 mL of blood is taken from the heart of the animal. The bronchoalveolar lavage fluid (BALF) is obtained by taking 6 mL of 0.1 mol/L pre-cooled PBS buffer solution, performing the bronchoalveolar lavage for three times, and uniformly lavaging the left lung repeatedly for three times. […]

[4] = system: citric acid smoke stimulation-caused guinea pigs; assay: Coughing times of citric acid smoke stimulated guinea pigs at different time points after one dose (Embodiment III); settings: 5 hours after one oral dose of 30 mg/kg; FIG. 2
Experimental: After the guinea pigs are quietly raised for one week, the cough sensitivity is screened: the guinea pigs are stimulated for one minute by atomizing 0.8 mol/L citric acid and continuously observed for five minutes after the atomizing is stopped; the coughing times of the guinea pigs in 6 minutes after the atomization is started is recorded; and the guinea pigs with the coughing times greater than 10 times and less than 50 times are the qualified guinea pigs.
The qualified guinea pigs are selected to be normally raised for three days and randomly divided into four groups with 30 guinea pigs in each group. The guinea pigs in the first group are divided into three subgroups with 10 guinea pigs in each subgroup, and all guinea pigs are directly under the citric acid cough stimulation: the guinea pigs are stimulated for one minute by atomizing 0.8 mol/L citric acid and are continuously observed for 5 minutes after the atomization is stopped, and the coughing times of the guinea pigs in 6 minutes after the atomization is started is recorded. […]

COc1ccc2c3c1O[C@H]1[C@@H](O)C=C[C@H]4[C@@H](C2)N(C)CC[C@@]341 [Codeine]
Coughing times ([1]; 0.4 mol/L citric acid, day 15, 20 min count): 37.29 ± 11.64 | Coughing latent period ([1]; day 15): 186.14 ± 45.27 s | Coughing times ([2]; 0.8 mol/L citric acid, 6 min count): 3.83 ± 1.94 | Coughing latent period [2]: 115.3 ± 20.18 s | Eos % ([3]; BALF eosinophils, mean): 4.25% | Lym % ([3]; BALF lymphocytes, mean): 3.64% | Mac % ([3]; BALF macrophages, mean): 43.86% | Neu % ([3]; BALF neutrophils, mean): 48.10% | total number of cells * 10^6/mL ([3]; BALF, x ± s): 2.13 ± 0.38 10^6/mL | coughing times compared with the normal group [4]: no significant difference
